The values that follow come from article PMC10289957 (Investigational New Drugs, 2023).

Like-named read-outs stand apart in the source and are kept apart here. Marks after values point to notes of the source that are not given here.

For one data set, the system named is preclinical models. Set-up: method as in PMID 29774094, PMID 33273059. To be noted: cited from earlier work.
The conditions of data set [1]: human, in vivo.
Description: (§1) Serial plasma samples were collected for PK analysis on days 1 and 4 of cycle 1 before the morning dose; at 1, 2, 4, 6, and between 8−12 h after the morning dose. Additional samples were taken before the morning dose and 1 and 4 h after the morning dose on days 1 and 4 of cycle 2 and days 1 and 4 of cycle 5. PK parameters were determined using standard noncompartmental methods with Phoenix WinNonlin v8.1 (Certara, Princeton, NJ). Area under the plasma concentration−time curve (AUC) was calculated using the linear up/log down trapezoidal rule.
The next data set concerns advanced solid tumors. Conditions: MK-8353 300−400 mg twice daily, 3/15 patients; cited from earlier work.
Data set [2] has as its system human cancer xenograft models. Conditions: various human cancer xenograft models; cited from earlier work. Background: A xenograft is tissue or cells of one species grown in another, often human tumour cells in immunodeficient mice.
Another data set is described as follows: clinical. Conditions: human, in vivo, Observed median time of maximum plasma concentration, range over dose levels.
Data set [3] has as its system patients with advanced solid tumors. To be noted: cited from earlier work.
Data set [4] is described as follows: Plasma pharmacokinetics after oral administration of the combination (noncompartmental). To be noted: for AUC0−12 / AUC0−last / Cmax / tlast / tmax: plasma; for AUC0−12 / AUC0−last / Cmax: geometric mean (% geometric CV); for tlast / tmax: median (range).
Description: as §1
Another data set relates to advanced cancers. Set-up: method as in PMID 25385055. Conditions: selumetinib monotherapy, patients with advanced cancers; cited from earlier work.
Another data set relates to patients. Set-up: method as in PMID 30681641. To be noted: cited from earlier work.
Setting [5] is: MK-8353 400 mg twice daily (MTD).
[6] abbreviates: MK-8353 400 mg twice daily, n = 7.
[7] abbreviates: MK-8353 800 mg twice daily, 6 patients.
[8] abbreviates: cycle 1 Day 1, MK-8353 50 mg + selumetinib 25 mg oral BID.
Setting [9] is: cycle 1 Day 1, MK-8353 100 mg + selumetinib 50 mg oral BID.
Where [10] appears, read: cycle 1 Day 1, MK-8353 150 mg + selumetinib 75 mg oral BID.
Setting [11] is: cycle 1 Day 4, MK-8353 50 mg + selumetinib 25 mg oral BID.
The mark [12] stands for this setting: cycle 1 Day 4, MK-8353 100 mg + selumetinib 50 mg oral BID.
Where [13] appears, read: cycle 1 Day 4, MK-8353 150 mg + selumetinib 75 mg oral BID.

With `Cc1cccc(CN2C(=O)c3cc(-c4nc(Nc5ccnn5C)ncc4C)cn3C[C@@H]2C)n1` [AZ6197], the “Antitumor activity of ERK inhibitor plus selumetinib versus each agent alone” value with preclinical models was “greater antitumor activity versus each agent alone”.
`COC[C@H]1Cn2cc(-c3nc(Nc4ccnn4C)ncc3C)nc2C(=O)N1Cc1ccc(F)c(F)c1` [AZD0364]: the “Antitumor activity of ERK inhibitor plus selumetinib versus each agent alone” value in the data set on preclinical models is recorded as “greater antitumor activity versus each agent alone”.
In the case of `CS[C@@]1(C(=O)Nc2ccc3[nH]nc(-c4ccc(OC(C)C)nc4)c3c2)CCN(CC(=O)N2CC=C(c3ccc(-c4ncn(C)n4)cc3)CC2)C1` [MK-8353], the “Accumulation at steady state” value in data set [1] is reported as ≤ 2 fold. Moreover, the “Patients with a partial response” value in the data set with advanced solid tumors is reported as 20%. Moreover, the Antitumor activity result in data set [2] is “Antitumor activity of MK-8353 was demonstrated”. In the data set “clinical” (cycle 1, all dose levels), this compound yielded a tmax of 1.97 to 2.05 h. In data set [3] (setting [5]), the Eye disorders result was “no eye disorders occurred”, the Macular rash is reported as 1 n, the Maculopapular rash is 3 n and the Pruritus is on record as 1 n. The Urticaria in [3] (setting [5]) is 1 n. Also, in data set [3] (setting [6]), the Diarrhea is 2 n, the Dyspepsia is recorded as 2 n, the Nausea is on record as 4 n and the Vomiting was 2 n. Further, the Safety and tolerability entry in data set [3] (MK-8353 400 mg twice daily) was “safe and well tolerated”. In addition, in data set [3] (setting [7]), the Blurred vision was 2 n, the Visual impairment was 3 n and the Vitreous floaters is 1 n. In data set [3], the “MTD of MK-8353 monotherapy” value is listed as 400 mg twice daily.
By Cmax is commonly meant the maximum level reached in the sampled fluid or tissue. Consider `O=C(NOCCO)c1cc2[nH]cnc2c(F)c1Nc1ccc(Br)cc1Cl` [desmethyl selumetinib], for which, in data set [4] (from lowest to highest dose), the “Geometric mean minimum plasma concentration (Ctrough)” value lay within 8 to 26 nM. Moreover, the “AUC0−12” value in data set [4] (setting [8]) is listed as 0.161 (52.4) h∙µmol/L; in data set [4] (setting [9]) it was 0.344 (73.5)^l h∙µmol/L; in data set [4] (setting [10]) it was 0.690 (56.3)^j h∙µmol/L; in data set [4] (setting [11]), 0.230 (63.5) h∙µmol/L; in [4] (setting [12]), 0.386 (49.6)^k h∙µmol/L; in data set [4] (setting [13]), 0.681 (35.7)^k h∙µmol/L. Also, the “AUC0−last” value in [4] (setting [8]) is recorded as 0.144 (47.7) h∙µmol/L; in [4] (setting [9]), 0.261 (118.6) h∙µmol/L; in [4] (setting [10]), 0.547 (61.3) h∙µmol/L; in data set [4] (setting [11]) it was 0.202 (60.5) h∙µmol/L; in [4] (setting [12]), 0.267 (102.1) h∙µmol/L; in data set [4] (setting [13]), 0.486 (87.7)^f h∙µmol/L. For the same compound, the Cmax in [4] (setting [8]) was 43.7 nM; in data set [4] (setting [9]), 93.5 nM; in [4] (setting [10]), 158 nM; in data set [4] (setting [11]), 56.3 nM; in data set [4] (setting [12]), 72.4 nM; in [4] (setting [13]), 97.7 nM. The tlast in data set [4] (setting [8]) was 8.02 (7.83–8.07) h; in data set [4] (setting [9]) it was 8.00 (3.92–11.33) h; in data set [4] (setting [10]), 8.00 (7.83–8.37) h; in data set [4] (setting [11]), 8.05 (7.97–8.08) h; in data set [4] (setting [12]), 8.00 (5.83–8.33) h; in [4] (setting [13]) it was 8.00 (0.00–8.05)^h. Besides, the tmax in [4] (setting [8]) is given as 1.88 (0.92–2.05) h; in data set [4] (setting [9]), 1.02 (0.88–2.08) h; in data set [4] (setting [10]), 1.92 (0.83–4.00) h; in [4] (setting [11]), 1.88 (1.87–2.00) h; in data set [4] (setting [12]) it was 1.96 (0.95–3.97) h; in data set [4] (setting [13]), 1.07 (0.00–5.92)^h. Also, the “Accumulation at steady state” value in data set [4] (twice daily dosing) is ≤ 2 fold.
As for `Cn1cnc2c(F)c(Nc3ccc(Br)cc3Cl)c(C(=O)NOCCO)cc21` [selumetinib], in data set [1], the “Accumulation at steady state” value is ≤ 2 fold, the “Geometric mean minimum plasma concentration (Ctrough)” value was 0.101−0.456 µmol/L and the “Time of Cmax after dosing” value is reported as ≤ 2 h. Moreover, in the data set with advanced cancers, the Objective response rates entry was “up to 15%”. In the data set on patients (selumetinib combination therapy with other agents (chemotherapies, targeted therapies)), the “Rates of treatment-related eye disorders” value is “up to 40%”. Moreover, in the data set on patients (selumetinib monotherapy, previous studies), the “Rates of treatment-related eye disorders” value was 10−20%. In “clinical”, this compound had a tmax of 1 to 1.96 h.
